Test results published in US6605644B2, “Analgesic regimen” (Ortho-McNeil Pharmaceutical, Inc., priority 1999, dated 2003).
Where a name gives a salt, the structure may show the parent alone.

Tests used:
[1] = cited from earlier work; for peak plasma concentration: mean±standard deviation
μ opioid receptors = μ opioid receptors (Homo sapiens, UniProt P35372); settings: cited from earlier work
[2] = Example 2: open-label run-in and double-blind study of 10-, 16- or 13-day titration in subjects with chronic pain
[3] = Example 1: randomized double-blind study of 1-, 4- or 10-day titration to 200 mg/day in patients with chronic joint pain; type: in vivo; settings: 10-day titration group (50 mg increments every 3 days to 200 mg/day) compared with 1-day and 4-day titration groups, 14 days
Protocol: A total of 465 patients with chronic joint pain were enrolled in the study and randomized into one of four treatment groups for 14 days. Patients continued on their prestudy dose of NSAIDs while concurrently receiving tramadol or placebo. Tramadol groups were titrated at three different rates to achieve the study target dose of 200 mg/day. […] Discontinuation due to any adverse event was similarly analyzed. If the trend was statistically significant, pairwise comparisons were performed to determine the statistical significance between titration rates.
The study protocol was approved by an Institutional Review Board at each study site and informed consent regarding the risks and benefits of participation was obtained for all patients.
Patients with chronic joint pain who had been receiving a maintenance dose (±25%) of NSAID for at least 30 days, and who required additional pain relief, were randomized into three titration groups and a placebo group using a 2:2:2:1 randomization schedule. […]

[4] = cited from earlier work
[5] = single 100 mg oral dose, healthy subjects
[6] = double-blind phase, 10-day titration group
[7] = double-blind phase, 13-day titration group
[8] = double-blind phase, 16-day titration group

Sequence of μ opioid receptors (P35372 whole entry): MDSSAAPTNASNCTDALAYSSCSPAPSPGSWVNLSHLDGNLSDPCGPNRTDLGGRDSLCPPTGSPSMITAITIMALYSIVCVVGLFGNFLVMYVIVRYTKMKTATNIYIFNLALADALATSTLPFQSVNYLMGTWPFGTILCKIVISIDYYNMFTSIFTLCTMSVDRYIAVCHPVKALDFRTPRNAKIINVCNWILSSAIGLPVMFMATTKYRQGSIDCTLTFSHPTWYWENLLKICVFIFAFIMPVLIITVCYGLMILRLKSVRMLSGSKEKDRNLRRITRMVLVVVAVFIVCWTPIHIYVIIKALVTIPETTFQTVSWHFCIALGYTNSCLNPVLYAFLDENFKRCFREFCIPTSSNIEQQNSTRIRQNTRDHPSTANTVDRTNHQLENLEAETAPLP

Row | Structure (SMILES) | peak plasma concentration [1, 5] [ng/mL] | terminal plasma elimination half-life [1, 5] [h] | time of peak plasma concentration after administration [1, 5] | binding affinity to μ receptors (μ opioid receptors) | median time to discontinuation due to any adverse event [2, 6] [days] | median time to discontinuation due to nausea and/or vomiting [2, 6] [days] | mean reduction from baseline PVA scores ([2]; double-blind phase, 10-day titration group (200 mg/day)) [cm] | median time to discontinuation due to any adverse event [2, 7] [days] | median time to discontinuation due to nausea and/or vomiting [2, 7] [days] | mean reduction from baseline PVA scores ([2]; double-blind phase, 13-day titration group (150 mg/day)) [cm] | median time to discontinuation due to any adverse event [2, 8] [days] | median time to discontinuation due to nausea and/or vomiting [2, 8] [days] | mean reduction from baseline PVA scores ([2]; double-blind phase, 16-day titration group (200 mg/day)) [cm] | mean reduction from baseline PVA scores ([2]; open-label/run-in phase, titrated to 200 mg/day over four days) [cm] | advantage in cumulative proportion of subjects who discontinued due to nausea and/or vomiting ([2]; titration to 200 mg/day over 10 days versus over 16 days) [percentage] | discontinuations due to dizziness and/or vertigo, nausea and/or vomiting, and any other adverse event [3] | absorption after oral administration ([1]; oral administration) | bound to plasma proteins [4] [%]
1 | CN(C)C[C@H]1CCCC[C@]1(O)c1cccc(O)c1 [mono-O-desmethyl tramadol, mono-O-desmethyltramadol] | 55 ± 20 | 7.4 ± 1.4 | approximately three | – | – | – | – | – | – | – | – | – | – | – | – | – | – | –
2 | COc1cccc(C2(O)CCCCC2CN(C)C)c1 (centres unmarked) [tramadol hydrochloride, 2-[(dimethylamino)methyl]-1-(3-methoxyphenyl)cyclohexanol] | 308 ± 78 | – | two | low-affinity binding | 9.0 | 9.0 | 1.4 | 6.5 | 5.5 | 1.6 | 6.0 | 4.0 | 1.5 | 2.1 | 20 | fewest discontinuations | rapidly and almost completely absorbed | 20.2
